According to US20190308988A1, “OPIOID RECEPTOR ANTAGONIST PRODRUGS” (Nirsum Laboratories, Inc., priority 2017, published 2019):
pIC50: −log10 of the molar value. Values after ≈ are worked out from the molar mass of the structure shown. Where a name gives a salt, the structure may show the parent alone.

Key:
[1] = Dog pharmacokinetic studies, deep intramuscular administration; format: in vivo, Beagle dogs; settings: IM 48 mg/kg, Sesame oil + 1% Benzyl Alcohol; for AUC(0-inf) / half-life: Beagle, dog, plasma, im, 48 mg/kg; for AUC(0-inf): read-out: AUC0-inf (ng · h/mL) prodrug; for half-life: read-out: Half-life t1/2 (hour) prodrug (converted)
Procedure: The purpose of this study is to determine the pharmacokinetics of test compounds in plasma, following deep intramuscular administration to Beagle dogs (n=3, unless otherwise specified).
The dose formulation (concentration—400 mg base equivalents/ml in sesame oil+1% benzyl alcohol, unless otherwise specified) was administered via deep intramuscularly (unless otherwise specified). The injection vehicle was also dosed via deep intramuscular route (unless otherwise specified) on contralateral site of each animal at study initiation. The animals were sedated with Propofol at 6 mg/kg via IV administration. Following sedation hair was carefully removed from around the injection site and the area gently cleaned. Care will be taken to avoid irritating skin during shaving and cleaning the injection site. Then dogs will be dosed with deep IM administration. At least 2.5 cm depth from the surface into the central aspect of the quadriceps or biceps femoris muscle, by angling the needle toward the femur. If the needle hits the femur, simply draws back slightly and then inject. The dose volume will be determined by the animals' body weight collected on the morning of dosing day. For repeated administration, the injection sites may be rotated to minimize tissue injury.
Blood samples were collected from a peripheral vessel from restrained, non-sedated animals per sampling time point.
Approximately 0.8 mL blood will be collected at each time point.
(§1) Each collected blood sample was centrifuged for 4 minutes at 4° C. and 10000 rpm for plasma collection. Plasma was collected and transferred into a pre-labeled PP tube in dry ice at each time point and precipitated immediately using ACN at a ratio of 1:4 (plasma:ACN).
(§2) LC-MS/MS methods for the quantitative determination of test compound in biological matrix were developed. […] The sample analysis was performed concurrently with a set of calibration standards and two sets of QC samples using the LC-MS/MS method.
(§3) Plasma concentration versus time data was analyzed by non-compartmental approaches using the Phoenix WinNonlin 6.3 software program. Cmax, Tmax, T1/2, AUC(0-t), AUC(0-inf), MRT(0-t), MRT(0-inf) and graphs of plasma concentration versus time profile were prepared.

[2] = Solubility determination in oil (Table 10); settings: thermodynamic from solid; for solubility thermodynamic: water, Equilibrium solubility: Water
Procedure: A known amount of test substance (˜40 mg) was weighed into the vial, 100 μL of oil was added and heated to 60° C. and then system was slurried to reach equilibrium. […] Extra oil was added into the vial once compound precipitated out and then the system was re-equilibrated at 1000 rpm at room temperature (25° C.). Final concentration was determined by HPLC method as described below in Table 6a and 6b.

[3] = target: T1, MOR (Homo sapiens, UniProt P35372); experiment: Opioid receptor binding assay, MOR ([3H]DAMGO)
T1 construct: expressed in transfected cells
Procedure: (§4) Receptor binding assays were performed to assess the ability of compounds to inhibit binding to radiolabeled ligand.
(§5) The stable cell lines were established and prepared cell membrane obtained using these cell lines.
(§6) 1) Transfer 1 μl of specified concentration compound to assay plate according to the plate map for nonspecific binding. Transfer 1 μl of DMSO to assay plate according to plate map for total binding. 2) Follow the plate map. Dispense 99 μl of membrane stocks into the plate. 3) Add 100 μl of radio ligand. 4) Seal the plates. Incubate at RT for 1 hour. 5) Soak the Unifilter-96 GF/C filter plates with 50 μl of 0.3% PEI per well for at least 0.5 hour at room temperature. 6) When binding assays are completed, filter the reaction mixture through GF/C plates using Perkin Elmer Filtermate Harvester, and then wash each plate for 4 times with cold wash buffer. 7) Dry the filter plates for 1 hour at 50 degrees. 8) After drying, seal the bottom of the filter plate wells using Perkin Elmer Unifilter-96 backing seal tape. Add 50 μl of Perkin Elmer Microscint 20 cocktail. Seal top of filter plates with Perkin Elmer TopSeal-A sealing film. 9) Count ^3H trapped on filter using Perkin Elmer MicroBeta2 Reader second day. 10) Analyze the data with GraphPad Prism 5. Calculate the “Inhibition [% Control]” using the equation: % Inh=(1−Background subtracted Assay value/Background subtracted HC value)*100.

[4] = target: T2, KOR (Homo sapiens, UniProt P41145); experiment: Opioid receptor binding assay, KOR ([3H]Diprenorphine)
T2 construct: expressed in transfected cells
Procedure: as §4, §5, §6

[5] = target: T3, DOR (Homo sapiens, UniProt P41143); experiment: Opioid receptor binding assay, DOR ([3H]-DADLE)
T3 construct: expressed in transfected cells
Procedure: as §4, §5, §6

[6] = Rat pharmacokinetic studies, intramuscular administration; format: in vivo, male Sprague Dawley Rats; settings: for AUC(0-inf): read-out: AUC0-inf (ng · h/mL) prodrug
Procedure: The purpose of this study is to determine the pharmacokinetics of test compounds in plasma, following intramuscular administration to male Sprague Dawley Rats (n=3, unless otherwise specified).
The dose formulation of 400 mg base equivalents/ml in sesame oil+1% benzyl alcohol (unless otherwise specified) was administered by intramuscular injection. The dose volume was determined by the animals' body weight determined on the morning of dosing day.
as §1, with “(plasma:ACN). Centrifuged again (10 minutes, 12000 rpm) and obtain the supernatant.” for “(plasma:ACN).”
as §2, §3

[7] = 25 °C, oil or lipid, Solubility by volumetric flask method: Cottonseed oil, volumetric flask method, Heating Temp. 60 °C, Obs. Temp. 25 °C
[8] = 25 °C, oil or lipid, Solubility by volumetric flask method: Sesame oil, volumetric flask method, Heating Temp. 60 °C, Obs. Temp. 25 °C
[9] = 40 °C, section 'Solubility by volumetric flask method', Heating Temp. 40 °C, Obs. Temp. 40 °C
[10] = 25 °C, oil or lipid, Approximate Solubility in Excipient: Cottonseed oil, Heating Temp. 60 °C, Obs. Temp. 25 °C
[11] = 25 °C, oil or lipid, Approximate Solubility in Excipient: Sesame oil, Heating Temp. 60 °C, Obs. Temp. 25 °C
[12] = 40 °C, Heating Temp. 40 °C, Obs. Temp. 40 °C
[13] = male, Sprague Dawley, rat, plasma, intramuscular, 0.8 mg/kg

T3 sequence (P41143 whole entry): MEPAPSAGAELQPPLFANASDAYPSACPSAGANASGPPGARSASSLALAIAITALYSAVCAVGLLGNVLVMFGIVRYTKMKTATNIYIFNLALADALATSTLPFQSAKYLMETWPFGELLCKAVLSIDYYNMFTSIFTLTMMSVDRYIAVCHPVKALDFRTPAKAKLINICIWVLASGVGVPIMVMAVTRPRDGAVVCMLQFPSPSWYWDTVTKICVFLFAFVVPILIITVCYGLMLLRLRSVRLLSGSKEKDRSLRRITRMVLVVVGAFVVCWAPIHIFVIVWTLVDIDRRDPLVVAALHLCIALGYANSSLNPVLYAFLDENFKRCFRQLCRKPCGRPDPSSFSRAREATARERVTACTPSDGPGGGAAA
T2 sequence (P41145 whole entry): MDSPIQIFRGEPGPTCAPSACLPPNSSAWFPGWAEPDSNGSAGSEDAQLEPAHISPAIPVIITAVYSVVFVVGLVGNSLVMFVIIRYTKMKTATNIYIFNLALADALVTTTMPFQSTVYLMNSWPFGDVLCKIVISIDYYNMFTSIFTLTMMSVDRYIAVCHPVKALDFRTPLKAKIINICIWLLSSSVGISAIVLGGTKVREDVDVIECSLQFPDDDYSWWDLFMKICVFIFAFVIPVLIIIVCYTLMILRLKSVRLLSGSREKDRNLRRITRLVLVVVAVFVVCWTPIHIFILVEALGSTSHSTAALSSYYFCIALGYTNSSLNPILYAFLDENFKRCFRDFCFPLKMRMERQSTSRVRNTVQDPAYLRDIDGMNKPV
T1 sequence (P35372 whole entry): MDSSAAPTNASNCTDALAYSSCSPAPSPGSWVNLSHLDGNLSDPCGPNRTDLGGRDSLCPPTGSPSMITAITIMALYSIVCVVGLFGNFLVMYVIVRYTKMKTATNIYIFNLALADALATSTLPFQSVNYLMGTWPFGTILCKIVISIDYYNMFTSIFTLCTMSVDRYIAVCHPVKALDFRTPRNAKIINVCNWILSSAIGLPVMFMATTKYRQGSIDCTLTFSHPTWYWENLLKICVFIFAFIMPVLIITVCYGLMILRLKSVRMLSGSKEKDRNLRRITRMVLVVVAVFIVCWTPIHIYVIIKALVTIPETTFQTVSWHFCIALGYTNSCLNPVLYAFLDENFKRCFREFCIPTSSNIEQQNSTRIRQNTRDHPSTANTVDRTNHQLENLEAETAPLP

SMILES	solubility at 24 h [2, 10] [mg/mL]	solubility at 24 h [2, 11] [mg/mL]	pIC50 [3]	pIC50 [4]	pIC50 [5]	solubility thermodynamic [2, 12] [mg/mL]	further results
C=C1CC[C@@]2(O)C3Cc4ccc(OC(=O)OCCCCCCCCCCC)c5c4[C@@]2(CCN3CC2CC2)[C@H]1O5 [Compound 3, (4aS,7aS,12bS)-3-(cyclopropylmethyl)-4a-hydroxy-7-methylene-2,3,4,4a,5,6,7,7a-octahydro-1H-4,12-methanobenzofuro[3,2-e]isoquinolin-9-yl undecyl carbonate]							AUC(0-inf) [1]: 360 ng·h/mL; half-life [1]: 63.1 h; solubility [2, 7]: > 399 mg/mL; solubility [2, 8]: > 401 mg/mL; solubility thermodynamic [2, 9]: < 0.001 mg/mL
CCCCCCCCCCCOC(=O)OCOc1ccc2c3c1O[C@H]1C(=O)CC[C@@]4(O)C(C2)N(CC2CC2)CC[C@]314 [Compound 4, (((4aS,7aR,12bS)-3-(cyclopropylmethyl)-4a-hydroxy-7-oxo-2,3,4,4a,5,6,7,7a-octahydro-1H-4,12-methanobenzofuro[3,2-e]isoquinolin-9-yl)oxy)methyl undecyl carbonate]							AUC(0-inf) [1]: 829 ng·h/mL; solubility [2, 7]: > 395 mg/mL; solubility [2, 8]: > 400 mg/mL; solubility thermodynamic [2, 9]: < 0.001 mg/mL
CCCCCCCCOC(=O)Oc1ccc2c3c1O[C@H]1C(=O)CC[C@@]4(O)C(C2)N(CC2CC2)CC[C@]314 [Compound 23, (4aS,7aR,12bS)-3-(cyclopropylmethyl)-4a-hydroxy-7-oxo-2,3,4,4a,5,6,7,7a-octahydro-1H-4,12-methanobenzofuro[3,2-e]isoquinolin-9-yl octyl carbonate]	> 408	> 424	8.55	7.93	6.97		solubility ([2]; 40 °C, oil or lipid, Approximate Solubility in Excipient: Cottonseed oil, Heating Temp. 60 °C, Obs. Temp. 40 °C): > 412 mg/mL; solubility ([2]; 40 °C, organic solvent or mixture, Approximate Solubility in Excipient: Ethanol, Heating Temp. 60 °C, Obs. Temp. 40 °C): > 419 mg/mL; solubility thermodynamic ([2]; 40 °C, Heating Temp. 60 °C, Obs. Temp. 40 °C): 0.0094 mg/mL (≈ 0.0189 mM)
C=C1CC[C@@]2(O)C3Cc4ccc(OCOC(=O)OCCCCCCCCCCCCCC)c5c4[C@@]2(CCN3CC2CC2)[C@H]1O5 [Compound 25, (((4aS,7aS,12bS)-3-(cyclopropylmethyl)-4a-hydroxy-7-methylene-2,3,4,4a,5,6,7,7a-octahydro-1H-4,12-methanobenzofuro[3,2-e]isoquinolin-9-yl)oxy)methyl tetradecyl carbonate]	> 414	> 404	8.30	6.05	5.02	< 0.001	
CCCCCCCCCCCCOC(=O)OCOc1ccc2c3c1O[C@H]1C(=O)CC[C@@]4(O)C(C2)N(CC2CC2)CC[C@]314 [Compound 29, (((4aS,7aR,12bS)-3-(cyclopropylmethyl)-4a-hydroxy-7-oxo-2,3,4,4a,5,6,7,7a-octahydro-1H-4,12-methanobenzofuro[3,2-e]isoquinolin-9-yl)oxy)methyl dodecyl carbonate]	> 410	> 416				< 0.001	AUC(0-inf) ([6]; male, Sprague Dawley, rat, plasma, im, 165 mg/kg, Sesame oil + 1% Benzyl Alcohol): 74.8 ng·h/mL
C=C1CC[C@@]2(O)C3Cc4ccc(OC(=O)OCCCCCCCCCCCCC)c5c4[C@@]2(CCN3CC2CC2)[C@H]1O5 [Compound 30, (4aS,7aS,12bS)-3-(cyclopropylmethyl)-4a-hydroxy-7-methylene-2,3,4,4a,5,6,7,7a-octahydro-1H-4,12-methanobenzofuro[3,2-e]isoquinolin-9-yl tridecyl carbonate]	252 to 404 (≈ 446 to 714 mM)	253 to 399 (≈ 446 to 704 mM)	8.05	7.05	5.73	< 0.001	
C=C1CC[C@@]2(O)C3Cc4ccc(OC(=O)OCCCCCCCCCCCCCCC)c5c4[C@@]2(CCN3CC2CC2)[C@H]1O5 [Compound 32, (4aS,7aS,12bS)-3-(cyclopropylmethyl)-4a-hydroxy-7-methylene-2,3,4,4a,5,6,7,7a-octahydro-1H-4,12-methanobenzofuro[3,2-e]isoquinolin-9-yl pentadecyl carbonate]	> 396	> 410	7.76	5.67	< 5.00	0.0328 (≈ 0.0552 mM)	
C=C1CC[C@@]2(O)C3Cc4ccc(OCOC(=O)OCCCCCCCCCC)c5c4[C@@]2(CCN3CC2CC2)[C@H]1O5 [Compound 35, (((4aS,7aS,12bS)-3-(cyclopropylmethyl)-4a-hydroxy-7-methylene-2,3,4,4a,5,6,7,7a-octahydro-1H-4,12-methanobenzofuro[3,2-e]isoquinolin-9-yl)oxy)methyl decyl carbonate]							half-life [1]: 70 h; AUC0-inf (ng · h/mL) nalmefene or naltrexone [1]: None; AUC0-inf (ng · h/mL) prodrug [1]: None
C=C1CC[C@@]2(O)C3Cc4ccc(OC(=O)CCCCCCCCCCC)c5c4[C@@]2(CCN3CC2CC2)[C@H]1O5 [Compound 59, (4aS,7aS,12bS)-3-(cyclopropylmethyl)-4a-hydroxy-7-methylene-2,3,4,4a,5,6,7,7a-octahydro-1H-4,12-methanobenzofuro[3,2-e]isoquinolin-9-yl dodecanoate, reference compound]							AUC(0-inf) ([6]; male, Sprague Dawley, rat, plasma, im, 17 mg/kg, Sesame oil + 1% Benzyl Alcohol): 10.4 ng·h/mL; half-life ([6]; male, Sprague Dawley, rat, plasma, im, 17 mg/kg, Sesame oil + 1% Benzyl Alcohol, read-out: Half-life t1/2 (hour) prodrug (converted)): 15.2 h
C=C1CC[C@@]2(O)[C@H]3Cc4ccc(O)c5c4[C@@]2(CCN3CC2CC2)[C@H]1O5.Cl [Nalmefene HCl - IR]							AUC0-inf (ng · h/mL) nalmefene ([6]; 0.80 mg/kg, saline): 66.0 ng·h/mL; Terminal Half-life t1/2 (hour) nalmefene ([6]; 0.80 mg/kg, saline): 0.87 h
C=C1CC[C@@]2(O)[C@H]3Cc4ccc(O)c5c4[C@@]2(CCN3CC2CC2)[C@H]1O5 [nalmefene HCL, reference compound]							concentration at 1 h [6, 13]: 29.4 ng/mL; concentration at 2 h [6, 13]: 2.09 ng/mL; concentration at 4 h [6, 13]: 0.212 ng/mL; concentration at 8 h [6, 13]: 0.0178 ng/mL
